Legend:
[1] = patients, i.v. injections; cited from earlier work
[2] = tested on: T-47D human breast carcinoma; assay: Cytotoxicity (% inhibition), trypan blue dye exclusion viable cell count, T-47D; assay type: cell-based
Procedure: The chemotherapeutic activities of the silver (I) coordination complex were determined on T-47D human breast carcinoma and Jurkat T-cell acute lymphoblastic leukemia, and compared with cisplatin (Pt(NH3)2Cl2) at 385 μg/mL, corresponding to 250 μg/mL platinum, which is the same concentration used for Ag for the experiments described in Examples 1 and 2, below. The two tumor cell lines were chosen very carefully so as to include solid (T-47D) and disseminated (Jurkat) neoplasia. Cells are plated in a 96-well flat bottom tissue culture plates at 50,000 cells/well. The experiments were conducted by serial dilution.
All cell lines were grown and tested in complete RPMI-1640 medium supplemented with 10% FBS, 40 μg/mL GEN, HEPES buffer of pH=7.2, 2 mM L-glutamine and sodium pyruvate. Plates were incubated in 5% CO2 at 37° C. in a humidified incubator for 24 hrs. Human tumor cells were maintained in the log phase by routine passaging every 2-3 days.
To assess % inhibition of tumor cells, the number of viable cells were counted by trypan blue dye exclusion method on a hemocytometer by microscopy, and adjusted for concentration of cells/mL. Briefly, each well was plated and washed with PBS twice and then harvested with 0.5 mL of Trypsin/EDTA. Cells were diluted with 1 ml of culture media and stained with trypan blue dye.
To examine if there was any interaction between culture medium and test reagents, the test culture was also inoculated with the present reagents without the presence of any of the drugs. […] All experiments were done in triplicates, and the results are averaged and reported.
Regression models were applied to the data to assess the correlation between % inhibition and concentration. Multiple curve estimation procedure was employed, and the relative fit for each model was determined on the basis of the values of the correlation coefficient, r^2; the fit that gives r^2 values closer to 1.0 was selected. The regression equations were then integrated over the concentration intervals for each phase, and their sum was taken as the AUCt>24.

T-47D cells = assay: DeadEnd Colorimetric TUNEL assay for in-situ apoptosis, T-47D; assay type: cell-based, human; conditions: 18 hours of incubation
Procedure: (§1) Detection of in-situ apoptosis was performed by the DeadEnd Colorimetric TUNEL (terminal deoxynucleotidyltransferase nick end labeling) assay for the detection of apoptosis in cultured cells as described in Promega kit (Promega Corporation-2800 Woods Hollow Road, Madison, Wis. 53711-5399, USA). Briefly, control and apoptosis-induced cells were centrifuged, washed with PBS, and were fixed on glass slides coated with poly-L-lysine (Sigma-Aldrich). The cells were fixed by immersing the slides in 10% buffered formalin, 4% paraformaldehyde solution for 25 minutes at room temperature. The fixed cells were then washed twice with fresh PBS for 5 minutes at room temperature. The cells were permeabilized by immersing the slides in 0.2% Triton® X-100 solution in PBS for 5 minutes at room temperature. The slides were then rinsed twice with PBS for 5 minutes each at room temperature. The excess liquid was then removed by tapping the slides, and the cells were covered with 100 μL of Equilibration Buffer, and the slides were equilibrated for 8 minutes at room temperature. Then, 100 μL of rTdT reaction mix were added and blotted around the equilibrated areas. The slides were then incubated at 37° C. for an hour inside a humidifier. Then, the reactions were terminated, the slides were washed and 0.3% hydrogen peroxide, and other reagents and washing steps were conducted according to the manufacturer's instructions. The slides were then observed under a light microscope for apoptotic staining. For comparative purposes, apoptotic studies were also performed on cisplatin. […]
(§2) To examine the mode of inherent chemotherapeutic activities of silver (I) complexes, apoptosis was detected by the TUNEL assay for each cell line studies for Phases I, II and III identified above. […] The 18 and 6-hour incubation periods were chosen because it was determined in previous experiments of this work that induction of apoptosis of silver (I) complex was within these times for these two cell lines.

Jurkat cells = assay: DeadEnd Colorimetric TUNEL assay for in-situ apoptosis, Jurkat; assay type: cell-based, human; conditions: 6 hours of incubation
Procedure: as §1, §2

Molecule	LOAEL (lowest-observed-adverse-effect level) for argyria [1] [mg/kg/day]	calculated AUCt>24 ([2]; Phase I) [cfu·μg/mL]	calculated AUCt>24 ([2]; Phase II) [cfu·μg/mL]	calculated AUCt>24 ([2]; Phase III) [cfu·μg/mL]	average % inhibition ([2]; range of 0.0019-0.0152 μg/mL metal) [%]	apoptotic staining (TUNEL) (T-47D cells; 0.0076 μg/mL (Phase I))	apoptotic staining (TUNEL) (T-47D cells; 3.906 μg/mL (Phase II))	apoptotic staining (TUNEL) (T-47D cells; 15.625 μg/mL (Phase III))	apoptotic staining (TUNEL) (Jurkat cells; 0.0076 μg/mL (Phase I))	apoptotic staining (TUNEL) (Jurkat cells; 3.906 μg/mL (Phase II))	apoptotic staining (TUNEL) (Jurkat cells; 15.625 μg/mL (Phase III))
silver arsphenamine	0.014	–	–	–	–	–	–	–	–	–	–
N.N.[Cl][Pt][Cl] [CIS-Pt, cis-diaminedichloroplatinum (II)]	–	0.0	2.05	107	0	absent	evident	evident	evident	evident	evident

From patent US8048870B2, “Apoptosis-inducing antineoplastic silver (I) coordination complexes” (priority 2005, dated 2011)
